Measured values published in US20230158025A1 (UNIVERSITY OF UTAH RESEARCH FOUNDATION, priority 2020, published 2023).
Read-outs that look alike come from different tables or passages of the source.

Assays:
recombinant human GALK1 = recombinant human GALK1 (Homo sapiens, UniProt P51570); test: hGALK1 biochemical activity assay (Kinase-Glo Plus, ATP depletion)
How it was run: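 Turnover is measured as ATP depletion by Kinase-Glo Plus luminescence after a 1 h room-temperature reaction. Compounds span 11 concentrations, 57.4 μM–0.97 nM, in final 20 mM HEPES pH 8.0 with 5 mM MgCl2. The substrate solution held 35 μM ATP; the added solution held 5 nM human or mouse GALK1 and 100 μM galactose.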

recombinant mouse GALK1 = recombinant mouse GALK1 (Mus musculus, UniProt Q9R0N0); test: mGALK1 biochemical activity assay (Kinase-Glo Plus, ATP depletion)
recombinant mouse GALK1, sequence (Q9R0N0 whole entry): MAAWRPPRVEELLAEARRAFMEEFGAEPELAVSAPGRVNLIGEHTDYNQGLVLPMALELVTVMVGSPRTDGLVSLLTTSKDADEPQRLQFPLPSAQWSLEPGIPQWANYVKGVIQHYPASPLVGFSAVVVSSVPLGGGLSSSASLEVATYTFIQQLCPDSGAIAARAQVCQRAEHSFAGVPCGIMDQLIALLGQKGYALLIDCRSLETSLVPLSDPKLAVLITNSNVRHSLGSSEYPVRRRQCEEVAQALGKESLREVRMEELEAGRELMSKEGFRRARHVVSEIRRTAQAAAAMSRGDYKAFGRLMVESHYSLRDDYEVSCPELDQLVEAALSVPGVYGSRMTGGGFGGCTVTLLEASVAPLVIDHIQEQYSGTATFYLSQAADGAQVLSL
How it was run: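 Recombinant GALK1 (5 nM) with 100 μM galactose; GALK1 turnover read as ATP depletion by Kinase-Glo Plus luminescence. Reaction ran 1 h at room temperature before detection reagent was added.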

PAMPA permeability = conditions: PAMPA; for Papp: Perm. (1 × 10^−6 cm/sec)
[1] = aqueous kinetic solubility; conditions: aqueous kinetic solubility
[2] = rat microsomal stability (RLM); conditions: microsomal stability half-life
[3] = Tables 2-15, 35 μM ATP, 100 μM galactose, 1 h, bracketed figure after some values (e.g. −1.2) is undefined and not reported, read-out: hGALK IC50
[4] = recombinant human GALK1, Kinase-Glo Plus ATP depletion, read-out: hGALK
[5] = Tables 2-15, 35 μM ATP, 100 μM galactose, 1 h, bracketed figure after some values is undefined and not reported, read-out: mGALK IC50
[6] = recombinant mouse GALK1, Kinase-Glo Plus ATP depletion, read-out: mGALK

recombinant human GALK1, sequence (P51570 whole entry): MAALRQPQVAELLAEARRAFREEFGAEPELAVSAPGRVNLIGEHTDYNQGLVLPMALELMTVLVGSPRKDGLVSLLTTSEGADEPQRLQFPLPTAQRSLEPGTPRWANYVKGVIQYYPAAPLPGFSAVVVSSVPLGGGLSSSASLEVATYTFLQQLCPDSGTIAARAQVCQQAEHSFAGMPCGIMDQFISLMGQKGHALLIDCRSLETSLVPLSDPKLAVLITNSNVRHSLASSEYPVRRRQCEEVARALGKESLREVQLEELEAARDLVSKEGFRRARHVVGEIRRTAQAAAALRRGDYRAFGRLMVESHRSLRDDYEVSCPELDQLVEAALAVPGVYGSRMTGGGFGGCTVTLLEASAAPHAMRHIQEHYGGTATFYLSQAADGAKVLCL

Row | Compound | IC50 (recombinant human GALK1; [3]) [µM] | IC50 (recombinant human GALK1; [4]) [µM] | IC50 (recombinant mouse GALK1; [5]) [µM] | IC50 (recombinant mouse GALK1; [6]) [µM] | Perm. (1 × 10^−6 cm/sec) (PAMPA permeability) | Sol. [1] [µg/mL] | Metab. Stabil. (m) [2] [m] | Papp (PAMPA permeability) [×10⁻⁶ cm/s]
1 | CC1=C(C(=O)Nc2cccc(-c3cn[nH]c3)c2)C(c2ccccc2Cl)N=C(Nc2nc3ccccc3o2)N1 (stereo not drawn) [Compound 178, N-(3-(1H-pyrazol-4-yl)phenyl)-2-(benzo[d]oxazol-2-ylamino)-4-(2-chlorophenyl)-6-methyl-1,4-dihydropyrimidine-5-carboxamide] | 17.2 | 17.2 | 38.5 | 38.5 | <25.4 1 × 10^−6 cm/sec | <1 | >30 | 
2 | CC1=C(C(=O)Nc2nnc(-c3cccnc3)s2)C(c2ccccc2Cl)N=C(Nc2nc3ccccc3o2)N1 (stereo not drawn) [Compound 180, 2-(benzo[d]oxazol-2-ylamino)-4-(2-chlorophenyl)-6-methyl-N-(5-(pyridin-3-yl)-1,3,4-thiadiazol-2-yl)-1,4-dihydropyrimidine-5-carboxamide] | 3.06 | 3.06 | 9.68 | 9.68 | <3.7 1 × 10^−6 cm/sec | <1 | >30 | 
3 | CC1=C(C(=O)Nc2ccc(C(N)=O)cc2)C(c2ccccc2Cl)N=C(Nc2nc3ccccc3o2)N1 (stereo not drawn) [Compound 181, 2-(benzo[d]oxazol-2-ylamino)-N-(4-carbamoylphenyl)-4-(2-chlorophenyl)-6-methyl-1,4-dihydropyrimidine-5-carboxamide] | 4.32 | 4.32 | 6.85 | 6.85 | <6.3 1 × 10^−6 cm/sec | <1 | >30 | 
4 | CC1=C(C(=O)Nc2ccc(CN3CCOCC3)cc2)C(c2ccccc2Cl)N=C(Nc2nc3ccccc3o2)N1 (stereo not drawn) [Compound 183, 2-(benzo[d]oxazol-2-ylamino)-4-(2-chlorophenyl)-6-methyl-N-(4-(morpholinomethyl)phenyl)-1,4-dihydropyrimidine-5-carboxamide] | 5.44 | 5.44 | 9.68 | 9.68 | 120.4 1 × 10^−6 cm/sec | <1 | 22.3 | 
5 | CC1=C(C(=O)Nc2ccc(-n3cccn3)cc2)C(c2ccccc2Cl)N=C(Nc2nc3ccccc3o2)N1 (stereo not drawn) [Compound 184, N-(4-(1H-pyrazol-1-yl)phenyl)-2-(benzo[d]oxazol-2-ylamino)-4-(2-chlorophenyl)-6-methyl-1,4-dihydropyrimidine-5-carboxamide] | 6.11 | 6.11 | 12.2 | 12.2 | <11.8 1 × 10^−6 cm/sec | <1 | 16.4271 | 
6 | COC(=O)c1cnc(NC(=O)C2=C(C)NC(Nc3nc4ccccc4o3)=NC2c2ccccc2Cl)s1 (stereo not drawn) [Compound 185, methyl 2-(2-(benzo[d]oxazol-2-ylamino)-4-(2-chlorophenyl)-6-methyl-1,4-dihydropyrimidine-5-carboxamido)thiazole-5-carboxylate] | 4.32 | 4.32 | 10.9 | 10.9 |  | <1 | 15.91 | < 7.6
7 | COC(=O)c1csc(NC(=O)C2=C(C)NC(Nc3nc4ccccc4o3)=NC2c2ccccc2Cl)n1 (stereo not drawn) [Compound 186, methyl 2-(2-(benzo[d]oxazol-2-ylamino)-4-(2-chlorophenyl)-6-methyl-1,4-dihydropyrimidine-5-carboxamido)thiazole-4-carboxylate] | 12.2 | 12.2 | 13.7 | 13.7 | 65.6 1 × 10^−6 cm/sec | <1 | >30 | 
8 | CC1=C(C(=O)Nc2nnc(-c3ccncc3)s2)C(c2ccccc2Cl)N=C(Nc2nc3ccccc3o2)N1 (stereo not drawn) [Compound 187, 2-(benzo[d]oxazol-2-ylamino)-4-(2-chlorophenyl)-6-methyl-N-(5-(pyridin-4-yl)-1,3,4-thiadiazol-2-yl)-1,4-dihydropyrimidine-5-carboxamide] | 10.9 | 10.9 | 19.3 | 19.3 | 6.2 1 × 10^−6 cm/sec | <1 | >30 | 
9 | CC1=C(C(=O)Nc2ccc(C#N)cc2)C(c2ccccc2Cl)N=C(Nc2nc3ccccc3o2)N1 (stereo not drawn) [Compound 189, 2-(benzo[d]oxazol-2-ylamino)-4-(2-chlorophenyl)-N-(4-cyanophenyl)-6-methyl-1,4-dihydropyrimidine-5-carboxamide] | 10.9 | 10.9 | 13.7 | 13.7 | <18.7 1 × 10^−6 cm/sec | <1 | 25.33 | 
10 | CC1=C(C(=O)Nc2ccc(N3CCNCC3)cc2)C(c2ccccc2Cl)N=C(Nc2nc3ccccc3o2)N1 (stereo not drawn) [Compound 190, 2-(benzo[d]oxazol-2-ylamino)-4-(2-chlorophenyl)-6-methyl-N-(4-(piperazin-1-yl)phenyl)-1,4-dihydropyrimidine-5-carboxamide] | 68.5 | 68.5 | 48.5 | 48.5 |  | 2.416 | 8.634 | 894
11 | CC1=C(C(=O)Nc2ncc(CO)s2)C(c2ccccc2Cl)N=C(Nc2nc3ccccc3o2)N1 (stereo not drawn) [Compound 193, 2-(benzo[d]oxazol-2-ylamino)-4-(2-chlorophenyl)-N-(5-(hydroxymethyl)thiazol-2-yl)-6-methyl-1,4-dihydropyrimidine-5-carboxamide] | 12.2 | 12.2 | 19.3 | 19.3 | 161.4 1 × 10^−6 cm/sec | <1 | >30 | 
12 | CC1=C(C(=O)Nc2cccc(C(=O)O)n2)C(c2ccccc2Cl)N=C(Nc2nc3ccccc3o2)N1 (stereo not drawn) [Compound 195, 6-(2-(benzo[d]oxazol-2-ylamino)-4-(2-chlorophenyl)-6-methyl-1,4-dihydropyrimidine-5-carboxamido)picolinic acid] | 4.32 | 4.32 | 6.85 | 6.85 | <1 1 × 10^−6 cm/sec | 60.0 | >30 | 

Second part, the compound after the results:

Row | IC50 (recombinant human GALK1; [3]) [µM] | IC50 (recombinant human GALK1; [4]) [µM] | IC50 (recombinant mouse GALK1; [5]) [µM] | IC50 (recombinant mouse GALK1; [6]) [µM] | Perm. (1 × 10^−6 cm/sec) (PAMPA permeability) | Sol. [1] [µg/mL] | Metab. Stabil. (m) [2] [m] | Papp (PAMPA permeability) [×10⁻⁶ cm/s] | Compound
13 | 2.73 | 2.73 | 5.44 | 5.44 | 27.7 1 × 10^−6 cm/sec | <1 | 18.44 |  | COC(=O)c1ccnc(NC(=O)C2=C(C)NC(Nc3nc4ccccc4o3)=NC2c2ccccc2Cl)c1 (stereo not drawn) [Compound 196, methyl 2-(2-(benzo[d]oxazol-2-ylamino)-4-(2-chlorophenyl)-6-methyl-1,4-dihydropyrimidine-5-carboxamido)isonicotinate]
14 | 9.68 | 9.68 | 12.2 | 12.2 | 18.9 1 × 10^−6 cm/sec | <1 | >30 |  | COC(=O)c1cccc(NC(=O)C2=C(C)NC(Nc3nc4ccccc4o3)=NC2c2ccccc2Cl)n1 (stereo not drawn) [Compound 197]
15 | 17.2 | 17.2 | 19.3 | 19.3 | 59.9 1 × 10^−6 cm/sec | <1 | >30 |  | CC1=C(C(=O)Nc2nc(CO)cs2)C(c2ccccc2Cl)N=C(Nc2nc3ccccc3o2)N1 (stereo not drawn) [Compound 198, 2-(benzo[d]oxazol-2-ylamino)-4-(2-chlorophenyl)-N-(4-(hydroxymethyl)thiazol-2-yl)-6-methyl-1,4-dihydropyrimidine-5-carboxamide]
16 |  | 3.43 | 3.06 | 3.06 | <1 1 × 10^−6 cm/sec | >74 | >30 |  | CC1=C(C(=O)Nc2ccnc(C(=O)O)c2)C(c2ccccc2Cl)N=C(Nc2nc3ccccc3o2)N1 (stereo not drawn) [Compound 203, 4-(2-(benzo[d]oxazol-2-ylamino)-4-(2-chlorophenyl)-6-methyl-1,4-dihydropyrimidine-5-carboxamido)picolinic acid]
17 | 7.69 | 7.69 | 10.9 | 10.9 | 49.2 1 × 10^−6 cm/sec | <1 | >30 |  | COC(=O)c1cc(NC(=O)C2=C(C)NC(Nc3nc4ccccc4o3)=NC2c2ccccc2Cl)ccn1 (stereo not drawn) [Compound 204, methyl 4-(2-(benzo[d]oxazol-2-ylamino)-4-(2-chlorophenyl)-6-methyl-1,4-dihydropyrimidine-5-carboxamido)picolinate]
18 |  | 3.43 |  | 6.85 | 306.7 1 × 10^−6 cm/sec | <1 | 19.99 |  | COC(=O)c1ccnc(NC(=O)C2=C(C)NC(Nc3nc4ccccc4o3)=N[C@H]2c2ccccc2Cl)c1 [Compound 206, (R)-methyl 2-(2-(benzo[d]oxazol-2-ylamino)-4-(2-chlorophenyl)-6-methyl-1,4-dihydropyrimidine-5-carboxamido)isonicotinate]
